In the assay the target is T1, Human VPS34 (Homo sapiens, UniProt Q8NEB9).
T1 construct: GST (N); host or cells: SF9 insect cells (baculovirus)
T1 sequence (Q8NEB9 whole entry): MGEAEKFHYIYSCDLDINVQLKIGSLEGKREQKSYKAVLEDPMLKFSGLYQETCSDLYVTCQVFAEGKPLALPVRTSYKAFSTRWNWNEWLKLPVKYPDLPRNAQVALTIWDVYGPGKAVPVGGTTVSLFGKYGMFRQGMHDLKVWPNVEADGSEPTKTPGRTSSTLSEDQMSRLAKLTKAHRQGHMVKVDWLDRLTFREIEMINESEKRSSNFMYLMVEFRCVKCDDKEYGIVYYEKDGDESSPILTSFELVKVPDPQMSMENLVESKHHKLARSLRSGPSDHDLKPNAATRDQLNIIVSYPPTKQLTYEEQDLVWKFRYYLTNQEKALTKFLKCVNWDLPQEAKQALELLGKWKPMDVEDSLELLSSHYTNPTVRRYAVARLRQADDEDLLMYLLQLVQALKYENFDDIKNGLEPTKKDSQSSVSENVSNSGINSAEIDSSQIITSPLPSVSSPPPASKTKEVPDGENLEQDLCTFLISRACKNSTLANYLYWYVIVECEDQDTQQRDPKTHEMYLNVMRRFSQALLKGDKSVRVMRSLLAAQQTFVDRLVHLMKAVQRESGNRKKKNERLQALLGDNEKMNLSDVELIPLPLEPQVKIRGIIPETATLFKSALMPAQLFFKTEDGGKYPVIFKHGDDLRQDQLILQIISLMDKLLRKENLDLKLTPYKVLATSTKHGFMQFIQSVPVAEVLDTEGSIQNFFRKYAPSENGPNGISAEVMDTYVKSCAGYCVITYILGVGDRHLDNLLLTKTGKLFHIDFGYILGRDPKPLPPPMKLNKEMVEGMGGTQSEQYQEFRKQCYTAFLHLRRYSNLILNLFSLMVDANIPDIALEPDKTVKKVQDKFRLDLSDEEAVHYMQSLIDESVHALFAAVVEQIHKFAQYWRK
Nature of the assay: Human VPS34 Enzyme Assay (Adapta TR-FRET). The assay is classed as biochemical. The following applies: compound at 1.111 μM; read-out: Average VPS34 % INH @ 1.111 μM. How it is done: VPS34 (accession number GB:BC033004) was cloned into pDEST20-Thombin as N-terminal GST tagged fusion proteins using the Gateway system (Invitrogen, catalog#11804-013). The sequences were verified before recombinant protein expression using the Baculovirus Expression System with Gateway® Technology.
For expression VPS34 was infected at 1MOI in SF9 cells and harvested 72 hours post infection.
For purification, VPS34 is purified by Glutathione Sepharose 4 Fast Flow (GE Healthcare #17-5132-03) followed by HiTrap Q (GE Healthcare #17-1153-01).
Human VPS34 Enzyme Assay Method
100 nL compounds in DMSO are added to wells of a 384 well microtitre plate (Greiner 780076). At room temperature: 5 ul VPS34 reaction buffer (Invitrogen Assay Buffer Q (diluted 1 in 5 with nanopure water) plus 2 mM DTT and 2 mM MnCl2) containing ATP (20 uM, Promega) and 200 uM PI-PS substrate (Invitrogen PV5122) is added followed immediately by 5 ul VPS34 reaction buffer (as above) containing VPS34 (5 nM, Millennium Protein Sciences Group) and the mixture is incubated with shaking at room temperature for 1 hour. Then 5 ul VPS34 stop-detect mix (as per Invitrogen Adapta Assay kit (PV5009) instructions (contains kinase quench buffer, TR-FRET buffer, Adapta Eu anti-ADP antibody and Alexa Fluor 647 ADP tracer)) is added to quench the reaction. The plates are then incubated for 30 minutes at room temperature with shaking and then read on a BMG PheraStar Plus reader.
3) VPS34 is assayed using Adapta™ Universal Kinase Assay Kit (Invitrogen).
Background: Time-resolved FRET reads energy transfer from a long-lived donor to a nearby acceptor.
In the case of `COCCNC(=O)c1cc(-c2cc(NC(C)=O)ncc2C)oc1-c1ccccc1Cl` [Compound I-29, 5-(2-acetamido-5-methylpyridin-4-yl)-2-(2-chlorophenyl)-N-(2-methoxyethyl)-3-furamide], the inhibition at 1.111 µM was determined as 116%.

For `CC(=O)Nc1cc(-c2nc(-c3cc[nH]n3)c(-c3ccccc3Cl)o2)c(C)cn1` [Compound I-30, N-{4-[5-(2-chlorophenyl)-4-(1H-pyrazol-3-yl)-1,3-oxazol-2-yl]-5-methylpyridin-2-yl}acetamide], the inhibition at 1.111 µM is 114%.

Turning to `CC(=O)Nc1cc(-c2nc(C(=O)Nc3cnccn3)c(-c3ccccc3Cl)o2)c(C)cn1` [Compound I-31, 2-(2-acetamido-5-methylpyridin-4-yl)-5-(2-chlorophenyl)-N-(pyrazin-2-yl)-1,3-oxazole-4-carboxamide], the inhibition at 1.111 µM turned out to be 56%.

Take `Nc1cc(-c2nc(-c3nnc[nH]3)c(-c3ccccc3Cl)o2)ccn1` [Compound I-32, 4-[5-(2-chlorophenyl)-4-(4H-1,2,4-triazol-3-yl)-1,3-oxazol-2-yl]pyridin-2-amine]: the inhibition at 1.111 µM worked out at 26%.

With `CC(=O)Nc1cc(-c2nc(-c3ccccc3Cl)c(-c3ncco3)o2)c(C)cn1` [Compound I-33, N-{4-[4′-(2-chlorophenyl)-2,5′-bi-1,3-oxazol-2′-yl]-5-methylpyridin-2-yl}acetamide], the inhibition at 1.111 µM was found to be 102%.

`CC(=O)Nc1cc(-c2cc(C(=O)NCCOCCO)c(-c3ccccc3Cl)o2)c(C)cn1` [Compound I-34, 5-(2-acetamido-5-methylpyridin-4-yl)-2-(2-chlorophenyl)-N-[2-(2-hydroxyethoxy)ethyl]-3-furamide]: the inhibition at 1.111 µM was found to be 128%.

Take `COC(=O)Nc1cc(-c2nc(-c3nnc[nH]3)c(-c3ccccc3Cl)o2)c(C)cn1` [Compound I-35, methyl {4-[5-(2-chlorophenyl)-4-(4H-1,2,4-triazol-3-yl)-1,3-oxazol-2-yl]-5-methylpyridin-2-yl}carbamate]: the inhibition at 1.111 µM was found to be 117%.

Turning to `CC(=O)Nc1cc(-c2cc(-c3nnc[nH]3)c(-c3cc(CN4CCCC4)ccc3Cl)o2)c(C)cn1` [Compound I-36, N-(4-{5-[2-chloro-5-(pyrrolidin-1-ylmethyl)phenyl]-4-(4H-1,2,4-triazol-3-yl)-2-furyl}-5-methylpyridin-2-yl)acetamide], the inhibition at 1.111 µM was found to be 129%.

Turning to `O=C(Cn1cccn1)Nc1cc(-c2nc(-c3nnc[nH]3)c(-c3ccccc3Cl)o2)ccn1` [Compound I-37, N-{4-[5-(2-chlorophenyl)-4-(4H-1,2,4-triazol-3-yl)-1,3-oxazol-2-yl]pyridin-2-yl}-2-(1H-pyrazol-1-yl)acetamide], the inhibition at 1.111 µM stood at 117%.

With `CC(=O)Nc1cc(-c2nc(C(=O)NCc3cccs3)c(-c3ccccc3Cl)o2)c(C)cn1` [Compound I-38, 2-(2-acetamido-5-methylpyridin-4-yl)-5-(2-chlorophenyl)-N-(2-thienylmethyl)-1,3-oxazole-4-carboxamide], the inhibition at 1.111 µM came to 43%.

In the case of `CC(=O)Nc1cc(-c2nc(-c3ccccc3Cl)c(-c3nnc[nH]3)o2)c(C)cn1` [Compound I-39, N-{4-[4-(2-chlorophenyl)-5-(4H-1,2,4-triazol-3-yl)-1,3-oxazol-2-yl]-5-methylpyridin-2-yl}acetamide], the inhibition at 1.111 µM stood at 125%.

As to `CC(=O)Nc1cc(-c2nc(-c3cc(CN(C)C)ccc3Cl)c(-c3nnc[nH]3)o2)c(C)cn1` [Compound I-40, N-{4-[4-{2-chloro-5-[(dimethylamino)methyl]phenyl}-5-(4H-1,2,4-triazol-3-yl)-1,3-oxazol-2-yl]-5-methylpyridin-2-yl}acetamide], the inhibition at 1.111 µM was found to be 115%.

On to `CC(=O)Nc1cc(-c2cc(C(=O)NCCc3cn4ccccc4n3)c(-c3ccccc3Cl)o2)c(C)cn1` [Compound I-41, 5-(2-acetamido-5-methylpyridin-4-yl)-2-(2-chlorophenyl)-N-[2-(imidazo[1,2-a]pyridin-2-yl)ethyl]-3-furamide], for which the inhibition at 1.111 µM came out at 90%.

For the molecule `CC(=O)Nc1cc(-c2cc(C(=O)NCc3cccs3)c(-c3ccccc3Cl)o2)c(C)cn1` [Compound I-42, 5-(2-acetamido-5-methylpyridin-4-yl)-2-(2-chlorophenyl)-N-(2-thienylmethyl)-3-furamide], the inhibition at 1.111 µM was 117%.

In the case of `C=CCCC(=O)Nc1cc(-c2nc(-c3nnc[nH]3)c(-c3ccccc3Cl)o2)ccn1` [Compound I-43, N-{4-[5-(2-chlorophenyl)-4-(4H-1,2,4-triazol-3-yl)-1,3-oxazol-2-yl]pyridin-2-yl}pent-4-enamide], the inhibition at 1.111 µM worked out at 98%.

On to `CC(=O)Nc1cc(-c2cc(C(=O)NCc3ccccn3)c(-c3ccccc3Cl)o2)c(C)cn1` [Compound I-44, 5-(2-acetamido-5-methylpyridin-4-yl)-2-(2-chlorophenyl)-N-(pyridin-2-ylmethyl)-3-furamide], for which the inhibition at 1.111 µM is 150%.

Consider `COCCC(=O)Nc1cc(-c2nc(-c3nnc[nH]3)c(-c3ccccc3Cl)o2)ccn1` [Compound I-45, N-{4-[5-(2-chlorophenyl)-4-(4H-1,2,4-triazol-3-yl)-1,3-oxazol-2-yl]pyridin-2-yl}-3-methoxypropanamide], for which the inhibition at 1.111 µM was found to be 104%.

In the case of `CON(C)C(=O)c1cc(-c2cc(NC(C)=O)ncc2C)oc1-c1ccccc1Cl` [Compound I-46, 5-(2-acetamido-5-methylpyridin-4-yl)-2-(2-chlorophenyl)-N-methoxy-N-methyl-3-furamide], the inhibition at 1.111 µM amounted to 89%.

For `CC(=O)Nc1cc(-c2nc(C(=O)NCc3cccnc3)c(-c3ccccc3Cl)o2)c(C)cn1` [Compound I-47, 2-(2-acetamido-5-methylpyridin-4-yl)-5-(2-chlorophenyl)-N-(pyridin-3-ylmethyl)-1,3-oxazole-4-carboxamide], the inhibition at 1.111 µM was determined as 31%.

As to `CC(=O)Nc1cc(-c2cc(-c3cc[nH]n3)c(-c3ccccc3Cl)o2)c(C)cn1` [Compound I-48, N-{4-[5-(2-chlorophenyl)-4-(1H-pyrazol-3-yl)-2-furyl]-5-methylpyridin-2-yl}acetamide], the inhibition at 1.111 µM worked out at 130%.

For the molecule `Clc1ccccc1-c1oc(-c2ccncc2)nc1-c1nnc[nH]1` [Compound I-49, 4-[5-(2-chlorophenyl)-4-(4H-1,2,4-triazol-3-yl)-1,3-oxazol-2-yl]pyridine], the inhibition at 1.111 µM worked out at 19%.

As for `CC(=O)Nc1cc(-c2nc(N3CCCS3(=O)=O)c(-c3nnc[nH]3)o2)c(C)cn1` [Compound I-50, N-{4-[4-(1,1-dioxidoisothiazolidin-2-yl)-5-(4H-1,2,4-triazol-3-yl)-1,3-oxazol-2-yl]-5-methylpyridin-2-yl}acetamide], the inhibition at 1.111 µM is 115%.

On to `CC(=O)Nc1cc(-c2nc(-c3cc(CN4CCCC4)ccc3Cl)c(C(=O)O)o2)c(C)cn1` [Compound I-51, 2-(2-acetamido-5-methylpyridin-4-yl)-4-[2-chloro-5-(pyrrolidin-1-ylmethyl)phenyl]-1,3-oxazole-5-carboxylic acid], for which the inhibition at 1.111 µM came to 131%.

`CNC(=O)c1nc(-c2cc(NC(C)=O)ncc2C)oc1-c1ccccc1Cl` [Compound I-52, 2-(2-acetamido-5-methylpyridin-4-yl)-5-(2-chlorophenyl)-N-methyl-1,3-oxazole-4-carboxamide]: the inhibition at 1.111 µM was 117%.
